From patent US5736529A, “Use of NAD-related compounds in the treatment of neural trauma to inhibit neurodegeneration” (priority 1996, dated 1998)
“Also recorded” adds a separate entry of the source.

Legend:
[1] = system: dopaminergic neurons in the midbrain; test: Apoptosis in MPTP treated mice (In Situ Apoptosis Detection Kit, tyrosine hydroxylase staining); type: in vivo, mouse (C57BL/6); conditions: MPTP 25 mg/kg ip twice; 48 hours
Protocol: After 48 hours the mice were perfused through the left ventricle with phosphate buffered saline (PBS) and then with 4% formaldehyde and 0.2% glutaraldehyde in PBS. The brains were coronally sliced into 50μ sections in a vibrating microtome.
To detect individual cells undergoing apoptosis, the In Situ Apoptosis Detection Kit (Oncor) was used. In this method, the fragmented DNA ends are extended with digoxigenin-dUTP. An anti-digoxigenin antibody then binds to the extension and is detected by a peroxidase reaction as previously described.
Tyrosine hydroxylase staining was done to identify dopaminergic neurons in the substantia nigra. The IgG polyclonal antibodies used were: a rabbit antibody to tyrosine hydroxylase; a sheep antibody to rabbit IgG and a rabbit antibody to horseradish peroxidase with the horseradish peroxidase coupled to the antibody^22. The tyrosine hydroxylase-stained brain slices were mounted on glass slides, dehydrated and coverslipped with balsam.

[2] = system: DNA in midbrain and striatum of C57BL/6 mice; test: Fluorimetric assay of DNA fragmentation in MPTP treated mice (Table 7); type: in vivo, mouse (C57BL/6); conditions: for DNA damage, MIDBRAIN: MPTP 25 mg/kg ip twice, mean ± S.D.
Text: A fifth group was the control. Brains were removed and the midbrain and striatum isolated.

[3] = system: 24 month old mice; conditions: mouse, in vivo, 500 mg/kg
[4] = system: poly(ADP-ribose) polymerase (PADPRP); conditions: cited from earlier work
[5] = system: hydroxyl radicals generated by the addition of 0.4M hydrogen peroxide; test: Quenching of hydroxyl radicals (EPR); conditions: 0.1M nicotinamide
Protocol: (§1) EPR spectra were measured at 23° and 100 kHz in a Bruker model ECS 106 spectrometer (Bruker, Karlsruhe, Germany). The EPR conditions were: modulation amplitude 0.483G, microwave power 20 mW and time constant 1.3 seconds.

[6] = system: superoxide radicals produced by xanthine oxidase; test: Quenching of superoxide radicals (EPR); conditions: 0.1M nicotinamide
Protocol: as §1

[7] = system: ATP; conditions: known effect of nicotinamide; cited from earlier work
[8] = system: xanthine oxidase; conditions: previous studies; cited from earlier work

## CN1CC=C(c2ccccc2)CC1 [MPTP, 1-methyl-4-phenyl-1,2,3,6-tetrahydropyridine]
[1]
  apoptotic cells in dopaminergic neurons in the midbrain: Apoptotic cells with shrunken and fragmented nuclei were detected
[2]; 25 mg/kg MPTP twice, 48 hours, p<0.05
  DNA fragmentation in the midbrain: Significant DNA fragmentation
[2]; 2 hours
  DNA damage, MIDBRAIN: 0.9108 ± 0.2233 per gram of tissue
[2]; 48 hours, * p<0.05 vs control
  DNA damage, MIDBRAIN: 1.6373 ± 0.4567 per gram of tissue

## NC(=O)c1cccnc1 [nicotinamide]
[3]
  deaths: one out of six
[4]
  inhibition of poly(ADP-ribose) polymerase: inhibits poly(ADP-ribose) polymerase; also recorded: weak inhibitor
[5]
  quenching of hydroxyl radicals: able to quench hydroxyl radicals
[6]
  quenching of superoxide radicals: able to quench superoxide radicals
[7]
  ATP levels: elevate NAD levels and ATP levels

## C[n+]1ccc(-c2ccccc2)cc1 [MPP+]
[8]
  substrate for xanthine oxidase: can act as a substrate for xanthine oxidase
